Key:
alveolar macrophages = assay: Timelapse cinemicrography of macrophage motility; type: cell-based, rat; conditions: macrophages from bleomycin treated animals, 4 days
Description: Freshly isolated cells from bronchoalveolar lavage of saline or bleomycin-treated animals were monitored for their motility using a Nikon TE-300 inverted microscope (Nikon Corp., Tokyo, Japan) to which a video camera (Hamamatsu CCD, Inc., Hamamatsu City, Japan) was attached. Cell locomotion of at least 20 cells per animal was determined using Metamorph (Universal Imaging Corp., Downingtown, Pa.). Cells were plated and maintained at 37° C. and followed for 2 hours with mean velocities calculated every 10 minutes. The effect of anti-RHAMM antibody was examined by adding 5 μg/ml of antibody per plate per treatment 15 minutes before measurement of motility. Non-immune IgG was used as a control. Each experiment was repeated at least three times.

male Sprague-Dawley rats = assay: Intratracheal bleomycin lung injury: macrophage accumulation (ED1) and lung architecture; type: in vivo, rat
Text: The Institutional Animal Care and Utilization Committees at both The Childrenls Hospital of Philadelphia and The University of Pennsylvania School of Medicine approved all animal care procedures. Six-week old (200-250 grams) male Sprague-Dawley rats (Charles River Breeding Laboratories, N. Wilmington, Mass.) were housed in the Animal Care Facility of The Children's Hospital of Philadelphia under standard conditions with free access to food and water. Animals were anesthetized with ketamine:xylazine:atropine (16:8:0.01 mg/kg), and the trachea was visualized through a vertical incision in the neck. Using an insulin syringe, 250 μl of either LPS-free saline or 8 units/kg bleomycin sulfate (Bristol Myers Squibb, Princeton, N.J.) in 250 μl of saline was injected into the trachea. The incision was closed with surgical clips, and animals were immediately injected intraperitoneally with either 0.5 mg of anti-RHAMM antibody (R36) or non-immune IgG. Antibody treatment was continued with daily injections of 0.5 mg of either R36 or IgG for either three or six days. At least three animals were examined for each condition, including one set that remained unmanipulated throughout.
Animals were sacrificed on days 4 or 7 after injury. Bronchoalveolar lavage (BAL) was obtained (36 ml/kg, total lung capacity) and immediately centrifuged at 500 g for 10 minutes to remove all cells and cellular debris. Approximately 80-90% of lavage was routinely recovered. The cellular pellet and the supernatant were separated and frozen at −70° C. until further analysis. […]
Macrophage accumulation was quantified by immunofluorescent staining with the rat macrophage specific marker ED1 (Serotec, Raleigh, N.C.). Endogenous fluorescence was blocked with separate exposure to sodium borohydrate (1 g/10 ml PBS, 3 minutes×2) and 1 M glycine in PBS for 30 minutes. […] Three blinded, independent observers counted ED 1 positive cells per high power field to quantify macrophage accumulation in at least three lung sections from each animal. […]

bleomycin sulfate
increase in motility of alveolar macrophages (alveolar macrophages): 5 fold | increase in macrophage number (male Sprague-Dawley rats; IT bleomycin, ED1 positive cells per hpf): 3 fold | macrophage number (ED1 positive cells) (male Sprague-Dawley rats; lung sections after IT bleomycin 8 units/kg, R36 0.5 mg ip daily): 28.4±4.7 cells per hpf | lung architecture at seven days (male Sprague-Dawley rats; tissue sections, bleomycin-injured rats): influx of inflammatory cells with thickening of alveolar septae and early fibrosis

Source: patent US20070179085A1, “MODULATION OF RHAMM-CAVEOLIN/LIPID RAFT INTERACTIONS TO AFFECT DEVELOPMENT, RESPONSES TO TISSUE INJURY, ANGIOGENESIS, TUMORIGENESIS, METASTASIS AND GROWTH FACTOR/CYTOKINE RESPONSES” (priority 2005, published 2007)
